Measured values reported in ChEMBL document CHEMBL4732240, “Synthesis and antibacterial evaluation of new monobactams” (2021).
Converted amounts (≈) assume the structure as drawn.

Experiments:
Format in all cases: functional
Enterobacter cloacae [1] = experiment: Antibacterial activity against Enterobacter cloacae clinical isolate assessed as reduction in bacterial growth by CLSI based broth microdilution method
Enterobacter cloacae [2] = experiment: Antibacterial activity against Enterobacter cloacae 700323 assessed as reduction in bacterial growth by CLSI based broth microdilution method
Klebsiella pneumoniae [3] = experiment: Antibacterial activity against Klebsiella pneumoniae clinical isolate assessed as reduction in bacterial growth by CLSI based broth microdilution method
Escherichia coli [4] = experiment: Antibacterial activity against Escherichia coli ATCC 8739 assessed as reduction in bacterial growth by CLSI based broth microdilution method
Pseudomonas aeruginosa [5] = experiment: Antibacterial activity against Pseudomonas aeruginosa clinical isolate. assessed as reduction in bacterial growth by CLSI based broth microdilution method
Klebsiella pneumoniae [6] = experiment: Antibacterial activity against Klebsiella pneumoniae 700603 assessed as reduction in bacterial growth by CLSI based broth microdilution method
Pseudomonas aeruginosa [7] = experiment: Antibacterial activity against Pseudomonas aeruginosa 9027 assessed as reduction in bacterial growth by CLSI based broth microdilution method
Escherichia coli [8] = experiment: Antibacterial activity against Escherichia coli clinical isolate assessed as reduction in bacterial growth by CLSI based broth microdilution method
Acinetobacter baumannii [9] = experiment: Antibacterial activity against Acinetobacter baumannii ATCC 19606 assessed as reduction in bacterial growth by CLSI based broth microdilution method; conditions: ATCC 19606 = CIP 70.34 = JCM 6841
Acinetobacter baumannii [10] = experiment: Antibacterial activity against Acinetobacter baumannii clinical isolate assessed as reduction in bacterial growth by CLSI based broth microdilution method

Row | Compound | MIC (Enterobacter cloacae [1]) | MIC (Enterobacter cloacae [2]) | MIC (Klebsiella pneumoniae [3]) | MIC (Escherichia coli [4]) | MIC (Pseudomonas aeruginosa [5]) | MIC (Klebsiella pneumoniae [6]) | MIC (Pseudomonas aeruginosa [7]) | MIC (Escherichia coli [8]) | MIC (Acinetobacter baumannii [9]) | MIC (Acinetobacter baumannii [10])
1 | CC1(C)[C@H](NC(=O)/C(=N/O[C@@H](COc2ccc(NC(=O)N[C@H]3CCCNC3)cc2)C(=O)O)c2csc(N)n2)C(=O)N1OS(=O)(=O)O | 64 µg/mL (≈ 93.5 µM) | 16 µg/mL (≈ 23.4 µM) | 32 µg/mL (≈ 46.7 µM) | 4 µg/mL (≈ 5.84 µM) | 64 µg/mL (≈ 93.5 µM) | > 64 µg/mL | 32 µg/mL (≈ 46.7 µM) | 32 µg/mL (≈ 46.7 µM) | > 64 µg/mL | > 64 µg/mL
2 | CC1(C)[C@H](NC(=O)/C(=N\O[C@@H](COc2ccc(NC(=O)N[C@@H]3CCCNC3)cc2)C(=O)O)c2csc(N)n2)C(=O)N1OS(=O)(=O)O | 2 µg/mL (≈ 2.92 µM) | 16 µg/mL (≈ 23.4 µM) | 0.5 µg/mL (≈ 0.73 µM) | 0.25 µg/mL (≈ 0.365 µM) | 8 µg/mL (≈ 11.7 µM) | 8 µg/mL (≈ 11.7 µM) | 2 µg/mL (≈ 2.92 µM) | 0.5 µg/mL (≈ 0.73 µM) | 8 µg/mL (≈ 11.7 µM) | 16 µg/mL (≈ 23.4 µM)
3 | CC1(C)[C@H](NC(=O)/C(=N/O[C@@H](COc2ccc(NC(=O)NC3CCNCC3)cc2)C(=O)O)c2csc(N)n2)C(=O)N1OS(=O)(=O)O | 32 µg/mL (≈ 46.7 µM) | > 64 µg/mL | 8 µg/mL (≈ 11.7 µM) | 4 µg/mL (≈ 5.84 µM) | 16 µg/mL (≈ 23.4 µM) | > 64 µg/mL | 16 µg/mL (≈ 23.4 µM) | 2 µg/mL (≈ 2.92 µM) | > 64 µg/mL | > 64 µg/mL

Other lines, results leading:

Row | MIC (Enterobacter cloacae [1]) | MIC (Enterobacter cloacae [2]) | MIC (Klebsiella pneumoniae [3]) | MIC (Escherichia coli [4]) | MIC (Pseudomonas aeruginosa [5]) | MIC (Klebsiella pneumoniae [6]) | MIC (Pseudomonas aeruginosa [7]) | MIC (Escherichia coli [8]) | MIC (Acinetobacter baumannii [9]) | MIC (Acinetobacter baumannii [10]) | Compound
4 | 4 µg/mL (≈ 5.84 µM) | 32 µg/mL (≈ 46.7 µM) | 1 µg/mL (≈ 1.46 µM) | 0.25 µg/mL (≈ 0.365 µM) | 4 µg/mL (≈ 5.84 µM) | 32 µg/mL (≈ 46.7 µM) | 2 µg/mL (≈ 2.92 µM) | 1 µg/mL (≈ 1.46 µM) | 16 µg/mL (≈ 23.4 µM) | 64 µg/mL (≈ 93.5 µM) | CC1(C)[C@H](NC(=O)/C(=N\O[C@@H](COc2ccc(NC(=O)NC3CCNCC3)cc2)C(=O)O)c2csc(N)n2)C(=O)N1OS(=O)(=O)O
5 | 4 µg/mL (≈ 5.84 µM) | 32 µg/mL (≈ 46.7 µM) | 1 µg/mL (≈ 1.46 µM) | 0.25 µg/mL (≈ 0.365 µM) | 2 µg/mL (≈ 2.92 µM) | 32 µg/mL (≈ 46.7 µM) | 2 µg/mL (≈ 2.92 µM) | 8 µg/mL (≈ 11.7 µM) | 32 µg/mL (≈ 46.7 µM) | 64 µg/mL (≈ 93.5 µM) | CC1(C)[C@H](NC(=O)/C(=N\O[C@@H](COc2ccc(NC(=O)N[C@H]3CCCNC3)cc2)C(=O)O)c2csc(N)n2)C(=O)N1OS(=O)(=O)O
6 | 64 µg/mL (≈ 93.5 µM) | 32 µg/mL (≈ 46.7 µM) | 32 µg/mL (≈ 46.7 µM) | 8 µg/mL (≈ 11.7 µM) | 64 µg/mL (≈ 93.5 µM) | > 64 µg/mL | 32 µg/mL (≈ 46.7 µM) | 32 µg/mL (≈ 46.7 µM) | > 64 µg/mL | > 64 µg/mL | CC1(C)[C@H](NC(=O)/C(=N/O[C@@H](COc2ccc(NC(=O)N[C@@H]3CCCNC3)cc2)C(=O)O)c2csc(N)n2)C(=O)N1OS(=O)(=O)O
